Results reported in patent US9090576B2, “2-substituted-p-quinone derivatives for treatment of oxidative stress diseases” (Edison Pharmaceuticals, Inc., priority 2008, dated 2015).

Assays:
Format in all cases: cell-based
[1] = test system: human dermal fibroblasts from LHON patients; assay: Rescue of BSO-stressed fibroblasts from LHON patients (screen as Example A); details: Fibroblast, BSO-stressed LHON fibroblasts (GM03858), less than about 150 nM, read-out: EC50, protection against LHON
Description: (§1) A culture with FRDA fibroblasts was started from a 1 ml vial with approximately 500,000 cells stored in liquid nitrogen. Cells were propagated in 10 cm cell culture dishes by splitting every third day in a ratio of 1:3 until nine plates were available. Once confluent, fibroblasts were harvested. For 54 micro titer plates (96 well-MTP) a total of 14.3 million cells (passage eight) were re-suspended in 480 ml medium, corresponding to 100 μl medium with 3,000 cells/well. The remaining cells were distributed in 10 cm cell culture plates (500,000 cells/plate) for propagation. The plates were incubated overnight at 37° C. in an atmosphere with 95% humidity and 5% CO2 to allow attachment of the cells to the culture plate.
(§2) MTP medium (243 μl) was added to a well of the microtiter plate. The test compounds were unfrozen, and 7.5 μl of a 5 mM stock solution was dissolved in the well containing 243 μl medium, resulting in a 150 μM master solution. Serial dilutions from the master solution were made. The period between the single dilution steps was kept as short as possible (generally less than 1 second).
(§3) Plates were kept overnight in the cell culture incubator. The next day, 10 μl of a 10 mM BSO solution were added to the wells, resulting in a 1 mM final BSO concentration. Forty-eight hours later, three plates were examined under a phase-contrast microscope to verify that the cells in the 0% control (wells E1-H1) were clearly dead. The medium from all plates was discarded, and the remaining liquid was removed by gently tapping the plate inversed onto a paper towel.
(§4) 100 μl of PBS containing 1.2 μM Calcein AM were then added to each well. The plates were incubated for 50-70 minutes at room temperature. After that time the PBS was discarded, the plate gently tapped on a paper towel and fluorescence (excitation/emission wavelengths of 485 nm and 525 nm, respectively) was read on a Gemini fluorescence reader. Data was imported into Microsoft Excel (EXCEL is a registered trademark of Microsoft Corporation for a spreadsheet program) and used to calculate the EC50 concentration for each compound.
(§5) Compounds of the invention were screened as described in Example A, but substituting FRDA cells with Leber's Hereditary Optic Neuropathy (LHON) cells obtained from the Coriell Cell Repositories (Camden, N.J.; repository number GM03858). The compounds were tested for their ability to rescue human dermal fibroblasts from LHON patients from oxidative stress.

[2] = test system: human dermal fibroblasts from Huntington's patients; assay: Rescue of BSO-stressed fibroblasts from Huntington's patients (screen as Example A); details: Fibroblast, BSO-stressed Huntington's fibroblasts (GM 04281), less than about 150 nM, read-out: EC50, protection against Huntington's
Description: as §1, §2, §3, §4
as §5, with “tested using the screen” for “screened”, “Huntington's” for “Leber's Hereditary Optic Neuropathy (LHON)”, “GM 04281).” for “GM03858).”, “Huntington's” for “LHON”

[3] = test system: Human dermal fibroblasts from Friedreich's Ataxia patients; assay: Rescue of BSO-stressed FRDA fibroblasts (Calcein AM viability); details: BSO-stressed FRDA fibroblasts (GM04078), less than about 150 nM, read-out: EC50, protection against FRDA
Description: An initial screen was performed to identify compounds effective for the amelioration of redox disorders. Test samples, 4 reference compounds (Idebenone, decylubiquinone, Trolox and α-tocopherol acetate), and solvent controls were tested for their ability to rescue FRDA fibroblasts stressed by addition of L-buthionine-(S,R)-sulfoximine (BSO), as described in Jauslin et al., Hum. Mol. Genet. 11(24):3055 (2002), Jauslin et al., FASEB J. 17:1972-4 (2003), and International Patent Application WO 2004/003565. […] This specific BSO-mediated cell death can be prevented by administration of antioxidants or molecules involved in the antioxidant pathway, such as α-tocopherol, selenium, or small molecule glutathione peroxidase mimetics. However, antioxidants differ in their potency, i.e. the concentration at which they are able to rescue BSO-stressed FRDA fibroblasts.
MEM (a medium enriched in amino acids and vitamins, catalog no. 1-31F24-I) and Medium 199 (M199, catalog no. 1-21F22-I) with Earle's Balanced Salts, without phenol red, were purchased from Bioconcept. Fetal Calf Serum was obtained from PAA Laboratories. Basic fibroblast growth factor and epidermal growth factor were purchased from PeproTech. Penicillin-streptomycin-glutamine mix, L-buthionine (S,R)-sulfoximine, (+)-α-tocopherol acetate, decylubiquinone, and insulin from bovine pancreas were purchased from Sigma. Trolox (6-hydroxy-2,5,7,8-tetramethylchromane-2-carboxylic acid) was obtained from Fluka. Idebenone was obtained from Chemo Iberica. Calcein AM was purchased from Molecular Probes. Cell culture medium was made by combining 125 ml M199 EBS, 50 ml Fetal Calf Serum, 100 U/ml penicillin, 100 μg/ml streptomycin, 2 mM glutamine, 10 μg/ml insulin, 10 ng/ml EGF, and 10 ng/ml bFGF; MEM EBS was added to make the volume up to 500 ml. A 10 mM BSO solution was prepared by dissolving 444 mg BSO in 200 ml of medium with subsequent filter-sterilization. During the course of the experiments, this solution was stored at +4° C. The cells were obtained from the Coriell Cell Repositories (Camden, N.J.; repository number GM04078) and grown in 10 cm tissue culture plates. Every third day, they were split at a 1:3 ratio.
The test samples were supplied in 1.5 ml glass vials. The compounds were diluted with DMSO, ethanol or PBS to result in a 5 mM stock solution. Once dissolved, they were stored at −20° C. Reference antioxidants (Idebenone, decylubiquinone, α-tocopherol acetate and trolox) were dissolved in DMSO.
Test samples were screened according to the following protocol:
as §1, §2
as §3, with “The medium from all plates was discarded, and the remaining liquid was removed by gently tapping the plate inversed onto a paper towel.” left out

| SMILES | EC50 [1] | EC50 [2] | EC50 [3] |
| --- | --- | --- | --- |
| CC1=C(C)C(=O)C(CCN(C)C(=O)Cc2ccc(Cl)cc2)=C(C)C1=O [2-(4-chlorophenyl)-N-methyl-N-(2-(2,4,5-trimethyl-3,6-dioxocyclohexa-1,4-dienyl)ethyl)acetamide] | < 150 nM | < 150 nM | < 150 nM |
| CC1=C(C)C(=O)C(CCN(C)C(=O)NCCN(C)C)=C(C)C1=O [3-(2-(dimethylamino)ethyl)-1-methyl-1-(2-(2,4,5-trimethyl-3,6-dioxocyclohexa-1,4-dienyl)ethyl)urea] | < 150 nM | < 150 nM | < 150 nM |
| CC1=C(C)C(=O)C(CCCC(=O)Nc2cccnc2)=C(C)C1=O [N-(pyridin-3-yl)-4-(2,4,5-trimethyl-3,6-dioxocyclohexa-1,4-dienyl)butanamide] | < 150 nM | < 150 nM | < 150 nM |
| CC1=C(C)C(=O)C(CCNC(=O)NCCN2CCOCC2)=C(C)C1=O [1-(2-morpholinoethyl)-3-(2-(2,4,5-trimethyl-3,6-dioxocyclohexa-1,4-dienyl)ethyl)urea] | < 150 nM | < 150 nM | < 150 nM |
| CC1=C(C)C(=O)C(CCC(C)C(=O)NCCc2ccccc2)=C(C)C1=O (centres unmarked) [2-methyl-N-phenethyl-4-(2,4,5-trimethyl-3,6-dioxocyclohexa-1,4-dienyl)butanamide] | < 150 nM | < 150 nM | < 150 nM |
| CC1=C(C)C(=O)C(CCCC(=O)Nc2ccccc2C#N)=C(C)C1=O [N-(2-cyanophenyl)-4-(2,4,5-trimethyl-3,6-dioxocyclohexa-1,4-dienyl)butanamide] | < 150 nM | < 150 nM | < 150 nM |
| CC1=C(C)C(=O)C(CCCC(=O)NCc2cccnc2)=C(C)C1=O [N-(pyridin-3-ylmethyl)-4-(2,4,5-trimethyl-3,6-dioxocyclohexa-1,4-dienyl)butanamide] | < 150 nM | < 150 nM | < 150 nM |
| CC1=C(C)C(=O)C(CCC(C)C(=O)Nc2ccc(F)cc2)=C(C)C1=O (centres unmarked) [N-(4-fluorophenyl)-2-methyl-4-(2,4,5-trimethyl-3,6-dioxocyclohexa-1,4-dienyl)butanamide] | < 150 nM | < 150 nM | < 150 nM |
| CC1=C(C)C(=O)C(CCCC(=O)NCCO)=C(C)C1=O [N-(2-hydroxyethyl)-4-(2,4,5-trimethyl-3,6-dioxocyclohexa-1,4-dienyl)butanamide] | < 150 nM | < 150 nM | < 150 nM |
| CC1=C(C)C(=O)C(CCC(C)C(=O)NCCO)=C(C)C1=O (centres unmarked) [N-(2-hydroxyethyl)-2-methyl-4-(2,4,5-trimethyl-3,6-dioxocyclohexa-1,4-dienyl)butanamide] | < 150 nM | < 150 nM | < 150 nM |
| CC1=C(C)C(=O)C(CCCC(=O)Nc2cc(Cl)cc(Cl)c2)=C(C)C1=O [N-(3,5-dichlorophenyl)-4-(2,4,5-trimethyl-3,6-dioxocyclohexa-1,4-dienyl)butanamide] | < 150 nM | < 150 nM | < 150 nM |
| CC1=C(C)C(=O)C(CCC(C)(C)O)=C(CCNC(=O)CCCCC2CCSS2)C1=O (centres unmarked) [5-(1,2-Dithiolan-3-yl)-N-(2-(2-(3-hydroxy-3-methylbutyl)-4,5-dimethyl-3,6-dioxocyclohexa-1,4-dienyl)ethyl)pentanamide] | < 150 nM | < 150 nM | < 150 nM |
| CC1=C(C)C(=O)C(CCC(C)(C)O)=C(CCNS(C)(=O)=O)C1=O [N-(2-(2-(3-hydroxy-3-methylbutyl)-4,5-dimethyl-3,6-dioxocyclohexa-1,4-dienyl)ethyl)methanesulfonamide] | < 150 nM | < 150 nM | < 150 nM |
| CC1=C(C)C(=O)C(CCNC(=O)N2CCN(C)CC2)=C(C)C1=O [4-methyl-N-(2-(2,4,5-trimethyl-3,6-dioxocyclohexa-1,4-dienyl)ethyl)piperazine-1-carboxamide] | < 150 nM | < 150 nM | < 150 nM |
| CC1=C(C)C(=O)C(CCCC(=O)Nc2ccccc2N)=C(C)C1=O [N-(2-aminophenyl)-4-(2,4,5-trimethyl-3,6-dioxocyclohexa-1,4-dienyl)butanamide] | < 150 nM | < 150 nM | < 150 nM |
| CC(=O)c1ccc(C(=O)NCCC2=C(C)C(=O)C(C)=C(C)C2=O)cc1 [4-acetyl-N-(2-(2,4,5-trimethyl-3,6-dioxocyclohexa-1,4-dienyl)ethyl)benzamide] | < 150 nM | < 150 nM | < 150 nM |
| CC1=C(C)C(=O)C(CCNC(=O)c2ccccc2)=C(C)C1=O [N-(2-(2,4,5-trimethyl-3,6-dioxocyclohexa-1,4-dienyl)ethyl)benzamide] | < 150 nM | < 150 nM | < 150 nM |
| CC1=C(C)C(=O)C(CCCC(=O)NCCc2ccncc2)=C(C)C1=O [N-(2-(pyridin-4-yl)ethyl)-4-(2,4,5-trimethyl-3,6-dioxocyclohexa-1,4-dienyl)butanamide] | < 150 nM | < 150 nM | < 150 nM |
| CC1=C(C)C(=O)C(CCC(C)(C)O)=C(CCNS(=O)(=O)c2ccc(C)cc2)C1=O [N-(2-(2-(3-hydroxy-3-methylbutyl)-4,5-dimethyl-3,6-dioxocyclohexa-1,4-dienyl)ethyl)-4-methylbenzenesulfonamide] | < 150 nM | < 150 nM | < 150 nM |
| CC1=C(C)C(=O)C(CCNC(=O)c2ccc(C)cc2)=C(C)C1=O [4-methyl-N-(2-(2,4,5-trimethyl-3,6-dioxocyclohexa-1,4-dienyl)ethyl)benzamide] | < 150 nM | < 150 nM | < 150 nM |
| CCCCCC(=O)NCCC1=C(CCC(C)(C)O)C(=O)C(C)=C(C)C1=O [N-(2-(2-(3-Hydroxy-3-methylbutyl)-4,5-dimethyl-3,6-dioxocyclohexa-1,4-dienyl)ethyl)hexanamide] | < 150 nM | < 150 nM | – |
| CCNC(=O)NCCC1=C(CCC(C)(C)O)C(=O)C(C)=C(C)C1=O [1-Ethyl-3-(2(2-(3-hydroxy-3-methylbutyl)-4,5-dimethyl-3,6-dioxocyclohexa-1,4-dienyl)ethyl)urea] | < 150 nM | < 150 nM | < 150 nM |
